Key:
GSK3β(h) = GSK3β(h) (Homo sapiens, UniProt P49841); test: Kinase panel, residual kinase activity at 1 μM inhibitor; type: biochemical
Method: (§1) In this table, residual kinase activity in the presence of 1 μM of each inhibitor is illustrated as a percentage of maximal activity.

Flt3(h) = Flt3(h) (Homo sapiens, UniProt P36888); test: as above; type: biochemical
Method: as §1

CaMKIIδ(h) = CaMKIIδ(h) (Homo sapiens, UniProt Q13557); test: as above; type: biochemical
Method: as §1

CDK2/cyclinE(h) = CDK2/cyclinE(h) (Homo sapiens, UniProt P24941); test: as above; type: biochemical
Method: as §1

SGK(h) = SGK(h) (Homo sapiens, UniProt O00141); test: as above; type: biochemical
Chain of SGK(h) (O00141 whole entry): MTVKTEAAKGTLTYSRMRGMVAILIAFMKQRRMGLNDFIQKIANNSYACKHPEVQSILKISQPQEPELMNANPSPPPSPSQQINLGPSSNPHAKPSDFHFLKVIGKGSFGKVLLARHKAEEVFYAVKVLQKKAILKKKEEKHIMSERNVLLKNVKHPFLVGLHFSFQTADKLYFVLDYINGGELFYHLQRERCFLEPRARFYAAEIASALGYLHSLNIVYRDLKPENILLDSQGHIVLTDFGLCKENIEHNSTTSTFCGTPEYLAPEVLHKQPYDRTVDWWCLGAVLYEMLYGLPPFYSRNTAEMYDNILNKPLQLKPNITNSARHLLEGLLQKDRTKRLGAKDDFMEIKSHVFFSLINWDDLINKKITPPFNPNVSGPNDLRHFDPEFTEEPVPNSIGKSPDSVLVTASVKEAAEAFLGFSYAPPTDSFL
Method: as §1

JAK3(h) = JAK3(h) (Homo sapiens, UniProt P52333); test: as above; type: biochemical
Method: as §1

ROCK-II(h) = ROCK-II(h) (Homo sapiens, UniProt O75116); test: as above; type: biochemical
Method: as §1

MAPK1(h) = MAPK1(h) (Homo sapiens, UniProt P27361); test: as above; type: biochemical
Method: as §1

PKCδ(h) = PKCδ(h) (Homo sapiens, UniProt Q05655); test: as above; type: biochemical
Chain of PKCδ(h) (Q05655 whole entry): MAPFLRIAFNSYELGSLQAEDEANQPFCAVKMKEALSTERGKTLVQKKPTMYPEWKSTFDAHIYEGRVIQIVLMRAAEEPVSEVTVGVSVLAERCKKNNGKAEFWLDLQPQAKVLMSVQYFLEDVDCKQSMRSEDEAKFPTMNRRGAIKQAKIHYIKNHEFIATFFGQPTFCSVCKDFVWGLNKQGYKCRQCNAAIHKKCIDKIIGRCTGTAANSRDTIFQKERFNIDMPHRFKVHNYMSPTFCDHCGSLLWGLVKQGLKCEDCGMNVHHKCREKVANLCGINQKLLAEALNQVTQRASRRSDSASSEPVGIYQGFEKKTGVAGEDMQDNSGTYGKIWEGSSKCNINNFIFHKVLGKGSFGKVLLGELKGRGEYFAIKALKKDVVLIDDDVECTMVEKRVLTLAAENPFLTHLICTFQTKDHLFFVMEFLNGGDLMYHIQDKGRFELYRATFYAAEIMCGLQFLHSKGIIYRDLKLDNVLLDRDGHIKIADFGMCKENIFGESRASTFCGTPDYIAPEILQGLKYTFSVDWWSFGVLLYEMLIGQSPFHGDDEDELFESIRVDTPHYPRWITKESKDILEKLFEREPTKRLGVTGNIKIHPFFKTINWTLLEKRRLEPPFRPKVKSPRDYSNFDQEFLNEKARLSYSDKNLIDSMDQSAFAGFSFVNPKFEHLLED
Method: as §1

PKG1α(h) = PKG1α(h) (Homo sapiens, UniProt Q13976); test: as above; type: biochemical
Method: as §1

PDK1(h) = PDK1(h) (Homo sapiens, UniProt O15530); test: as above; type: biochemical
Chain of PDK1(h) (O15530 whole entry): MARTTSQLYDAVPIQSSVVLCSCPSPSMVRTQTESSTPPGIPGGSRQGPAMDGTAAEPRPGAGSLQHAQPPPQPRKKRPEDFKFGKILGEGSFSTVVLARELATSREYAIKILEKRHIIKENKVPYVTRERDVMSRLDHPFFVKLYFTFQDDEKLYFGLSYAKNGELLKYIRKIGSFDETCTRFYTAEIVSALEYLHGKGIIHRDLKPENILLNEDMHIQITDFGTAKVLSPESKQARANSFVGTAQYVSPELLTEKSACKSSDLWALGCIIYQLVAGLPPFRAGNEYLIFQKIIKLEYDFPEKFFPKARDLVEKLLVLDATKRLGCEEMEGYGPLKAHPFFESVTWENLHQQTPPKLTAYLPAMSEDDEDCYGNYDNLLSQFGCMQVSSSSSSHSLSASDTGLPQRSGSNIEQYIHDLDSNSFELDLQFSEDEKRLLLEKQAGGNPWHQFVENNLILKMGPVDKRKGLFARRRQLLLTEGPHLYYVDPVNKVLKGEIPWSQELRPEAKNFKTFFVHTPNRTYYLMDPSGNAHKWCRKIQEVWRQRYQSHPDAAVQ
Method: as §1

CaMKIIγ(h) = CaMKIIγ(h) (Homo sapiens, UniProt Q13555); test: as above; type: biochemical
Method: as §1

FAK(h) = FAK(h) (Homo sapiens, UniProt Q05397); test: as above; type: biochemical
Method: as §1

p70S6K(h) = p70S6K(h) (Homo sapiens, UniProt P23443); test: as above; type: biochemical
Chain of p70S6K(h) (P23443 whole entry): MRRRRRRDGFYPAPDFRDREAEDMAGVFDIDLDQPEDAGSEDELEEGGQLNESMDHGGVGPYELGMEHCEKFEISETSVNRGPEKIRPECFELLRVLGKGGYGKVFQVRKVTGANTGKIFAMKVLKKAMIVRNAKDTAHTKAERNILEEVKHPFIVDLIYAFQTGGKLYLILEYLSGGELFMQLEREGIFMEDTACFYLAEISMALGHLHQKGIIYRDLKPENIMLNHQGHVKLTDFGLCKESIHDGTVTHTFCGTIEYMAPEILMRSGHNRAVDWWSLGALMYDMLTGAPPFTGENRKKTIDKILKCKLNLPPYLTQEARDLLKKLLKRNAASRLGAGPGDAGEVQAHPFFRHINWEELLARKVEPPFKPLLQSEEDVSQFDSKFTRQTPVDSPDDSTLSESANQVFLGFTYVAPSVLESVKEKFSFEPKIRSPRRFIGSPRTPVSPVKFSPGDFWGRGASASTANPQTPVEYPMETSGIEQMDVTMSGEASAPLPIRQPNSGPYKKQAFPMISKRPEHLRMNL
Method: as §1

Pim-1(h) = Pim-1(h) (Homo sapiens, UniProt P11309); test: as above; type: biochemical
Chain of Pim-1(h) (P11309 whole entry): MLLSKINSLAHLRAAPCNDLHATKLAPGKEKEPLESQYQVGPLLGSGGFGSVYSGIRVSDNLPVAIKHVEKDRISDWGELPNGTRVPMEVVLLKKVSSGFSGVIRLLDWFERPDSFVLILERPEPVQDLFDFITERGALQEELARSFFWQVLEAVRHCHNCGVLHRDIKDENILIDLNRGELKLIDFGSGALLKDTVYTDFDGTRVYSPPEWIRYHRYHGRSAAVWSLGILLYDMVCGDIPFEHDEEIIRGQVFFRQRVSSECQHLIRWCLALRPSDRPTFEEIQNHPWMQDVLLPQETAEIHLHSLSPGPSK
Method: as §1

mTOR(h) = mTOR(h) (Homo sapiens, UniProt P42345); test: as above; type: biochemical
Method: as §1

CaMKI(h) = CaMKI(h) (Homo sapiens, UniProt Q14012); test: as above; type: biochemical
Chain of CaMKI(h) (Q14012 whole entry): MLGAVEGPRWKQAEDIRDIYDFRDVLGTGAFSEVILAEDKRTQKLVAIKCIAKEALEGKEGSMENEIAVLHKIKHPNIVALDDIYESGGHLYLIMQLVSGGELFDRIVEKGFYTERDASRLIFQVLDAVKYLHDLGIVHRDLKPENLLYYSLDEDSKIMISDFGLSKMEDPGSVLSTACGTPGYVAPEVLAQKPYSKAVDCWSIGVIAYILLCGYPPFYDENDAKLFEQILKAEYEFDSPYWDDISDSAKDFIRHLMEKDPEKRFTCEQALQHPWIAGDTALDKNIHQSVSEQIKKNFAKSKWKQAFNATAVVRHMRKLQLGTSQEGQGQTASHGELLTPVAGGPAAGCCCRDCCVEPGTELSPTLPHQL
Method: as §1

[1] = tested on: LTP in CaMKIIα knockout slices; test: LTP induction in slices of CaMKIIα knockout mice injected with AAV-mScarlet (mock) or AAV-mScarlet-CaMKII F89G; type: cell-based, mouse
Method: Specifically, in one exemplary method, pharmacogenetic rescue of LTP with NM-PP1 was tested in hippocampal slices expressing the CaMKII F89G mutant. For this purpose, mScarlet-labeled CaMKII F89G mutant were re-expressed in the hippocampal CA1 region of CaMKIIα knockout mice. This was done by stereotactic injection of a packaged adeno-associated virus (AAV) construct in which the expression of either mScarlet alone or the mScarlet-labeled mutant CaMKII is controlled by the CaMKIIα promoter (FIG. 5A). After 5 weeks of expression, acute slices were prepared and evaluated for proper localization of expression by imaging of mScarlet fluorescence (FIG. 5A and FIG. 11A). […] As expected, NM-PP1 had no effect on the residual LTP in these control slices (FIGS. 5B-5C and FIG. 11B). By contrast, in slices expressing the CaMKII F89G mutant, LTP was completely abolished (FIGS. 5D-5E), consistent with residual LTP being further suppressed by the dominant negative effect (on the remaining minor CaMKIIβ isoform in the CaMKIIα knockout) that is exerted by a CaMKII mutant with impaired ATP-binding and thereby is deficient in both activity and GluN2B binding. […] Thus, two independent lines of pharmacogenetic evidence topple current dogma by directly supporting the conclusion that LTP induction is linked to structural rather than enzymatic functions of CaMKII.
AAV Production. […]

Chain of CaMKIIδ(h) (Q13557 whole entry): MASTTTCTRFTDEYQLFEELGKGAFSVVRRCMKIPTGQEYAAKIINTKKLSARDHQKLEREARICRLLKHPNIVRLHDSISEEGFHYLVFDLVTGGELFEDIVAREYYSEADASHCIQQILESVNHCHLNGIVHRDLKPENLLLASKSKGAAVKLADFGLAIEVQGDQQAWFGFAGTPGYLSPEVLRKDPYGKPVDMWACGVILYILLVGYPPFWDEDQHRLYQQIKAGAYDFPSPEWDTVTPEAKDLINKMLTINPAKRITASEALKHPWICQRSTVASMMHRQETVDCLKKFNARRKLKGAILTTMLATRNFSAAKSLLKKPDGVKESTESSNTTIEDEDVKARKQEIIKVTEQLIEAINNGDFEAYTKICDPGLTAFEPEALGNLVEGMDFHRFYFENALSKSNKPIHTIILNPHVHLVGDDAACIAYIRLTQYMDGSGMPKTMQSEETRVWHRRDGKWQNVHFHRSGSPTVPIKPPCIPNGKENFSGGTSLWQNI
Chain of GSK3β(h) (P49841 whole entry): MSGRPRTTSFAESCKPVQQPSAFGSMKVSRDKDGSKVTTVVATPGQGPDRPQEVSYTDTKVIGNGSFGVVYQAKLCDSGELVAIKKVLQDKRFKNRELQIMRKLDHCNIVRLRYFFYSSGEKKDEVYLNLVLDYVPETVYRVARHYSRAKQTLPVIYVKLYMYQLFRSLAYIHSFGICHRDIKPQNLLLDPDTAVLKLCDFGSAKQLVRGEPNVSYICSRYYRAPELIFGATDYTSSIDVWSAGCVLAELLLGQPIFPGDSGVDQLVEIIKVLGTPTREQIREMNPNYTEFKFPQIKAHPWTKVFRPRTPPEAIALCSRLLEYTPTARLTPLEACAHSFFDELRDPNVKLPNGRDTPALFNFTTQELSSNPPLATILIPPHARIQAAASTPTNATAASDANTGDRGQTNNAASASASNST
Chain of Flt3(h) (P36888 27-993): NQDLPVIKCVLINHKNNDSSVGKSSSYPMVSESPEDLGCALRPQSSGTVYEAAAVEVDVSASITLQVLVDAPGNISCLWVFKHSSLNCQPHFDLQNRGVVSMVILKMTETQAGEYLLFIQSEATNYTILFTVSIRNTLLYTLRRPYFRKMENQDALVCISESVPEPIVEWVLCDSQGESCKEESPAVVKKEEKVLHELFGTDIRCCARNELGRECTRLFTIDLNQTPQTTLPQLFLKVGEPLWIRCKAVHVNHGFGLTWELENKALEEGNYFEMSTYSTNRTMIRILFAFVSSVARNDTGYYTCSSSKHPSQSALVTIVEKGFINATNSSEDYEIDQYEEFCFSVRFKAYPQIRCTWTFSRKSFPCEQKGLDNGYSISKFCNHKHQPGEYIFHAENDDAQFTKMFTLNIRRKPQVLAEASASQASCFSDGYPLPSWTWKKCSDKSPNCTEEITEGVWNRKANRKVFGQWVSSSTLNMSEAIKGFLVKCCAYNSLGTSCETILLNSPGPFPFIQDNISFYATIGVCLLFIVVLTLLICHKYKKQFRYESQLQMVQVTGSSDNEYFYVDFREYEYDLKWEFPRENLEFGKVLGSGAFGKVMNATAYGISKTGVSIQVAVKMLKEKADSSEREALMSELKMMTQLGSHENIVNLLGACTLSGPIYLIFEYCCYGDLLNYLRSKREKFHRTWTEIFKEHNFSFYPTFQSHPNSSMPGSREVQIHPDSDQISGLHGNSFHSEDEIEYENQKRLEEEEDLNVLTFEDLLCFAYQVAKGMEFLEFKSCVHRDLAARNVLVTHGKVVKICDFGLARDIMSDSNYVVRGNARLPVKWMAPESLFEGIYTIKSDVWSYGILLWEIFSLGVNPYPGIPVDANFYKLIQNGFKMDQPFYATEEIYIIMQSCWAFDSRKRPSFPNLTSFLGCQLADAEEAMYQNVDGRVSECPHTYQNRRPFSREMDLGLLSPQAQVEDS

SMILES	residual kinase activity, GSK3β(h) (GSK3β(h))	residual kinase activity, Flt3(h) (Flt3(h))	residual kinase activity, CaMKIIδ(h) (CaMKIIδ(h))	residual kinase activity, CDK2/cyclinE(h) (CDK2/cyclinE(h))	residual kinase activity, SGK(h) (SGK(h))	residual kinase activity, JAK3(h) (JAK3(h))	residual kinase activity, ROCK-II(h) (ROCK-II(h))	residual kinase activity, MAPK1(h) (MAPK1(h))	residual kinase activity, PKCδ(h) (PKCδ(h))	residual kinase activity, PKG1α(h) (PKG1α(h))	residual kinase activity, PDK1(h) (PDK1(h))	residual kinase activity, CaMKIIγ(h) (CaMKIIγ(h))	residual kinase activity, FAK(h) (FAK(h))	residual kinase activity, p70S6K(h) (p70S6K(h))	residual kinase activity, Pim-1(h) (Pim-1(h))	residual kinase activity, mTOR(h) (mTOR(h))	residual kinase activity, CaMKI(h) (CaMKI(h))	residual LTP in CaMKIIα knockout slices expressing mScarlet control ([1]; NM-PP1)	LTP induction in CaMKIIα knockout slices expressing CaMKII F89G ([1]; NM-PP1 10 μM)
NCCNc1cccc(-c2ccnc3[nH]c4ccccc4c23)c1 [AS283]	87 percentage of maximal activity	3 percentage of maximal activity	2 percentage of maximal activity	41 percentage of maximal activity	86 percentage of maximal activity	92 percentage of maximal activity	77 percentage of maximal activity	102 percentage of maximal activity	39 percentage of maximal activity	48 percentage of maximal activity	78 percentage of maximal activity	2 percentage of maximal activity	68 percentage of maximal activity	18 percentage of maximal activity	50 percentage of maximal activity	115 percentage of maximal activity	107 percentage of maximal activity	–	–
CC(C)(C)n1nc(Cc2cccc3ccccc23)c2c(N)ncnc21 [NM-PP1]	–	–	–	–	–	–	–	–	–	–	–	–	–	–	–	–	–	no effect	LTP induction was enabled

Source: patent US20260263429A1, “INHIBITORS OF CA 2+/CALMODULIN-DEPENDENT PROTEIN KINASE II (CAMKII) THAT DO NOT INHIBIT LONG-TERM POTENTIATION (LTP) INDUCTION AND THERAPEUTIC USES THEREOF” (The Regents of the University of Colorado, A Body Corporate, priority 2023, published 2026)
